One data set has as its system B16-F10. Briefly: Antiproliferative activity against mouse B16-F10 cells incubated for 72 hrs by MTT assay. The format is functional, cell-based. The following applies: B16-F10, 72 h. On the technique in general: Tetrazolium assays rely on reduction of a dye to a coloured formazan, in cell work by metabolically active cells.
The target of a further data set is Histone deacetylase 3 (Homo sapiens, UniProt O15379). Put plainly: Inhibition of HDAC3 derived from human HeLa cell extract using Ac-Leu-Gly-Lys (Ac)-AMC as substrate by fluorescence based assay. The format is cell-free.
Chain of Histone deacetylase 3 (O15379 whole entry): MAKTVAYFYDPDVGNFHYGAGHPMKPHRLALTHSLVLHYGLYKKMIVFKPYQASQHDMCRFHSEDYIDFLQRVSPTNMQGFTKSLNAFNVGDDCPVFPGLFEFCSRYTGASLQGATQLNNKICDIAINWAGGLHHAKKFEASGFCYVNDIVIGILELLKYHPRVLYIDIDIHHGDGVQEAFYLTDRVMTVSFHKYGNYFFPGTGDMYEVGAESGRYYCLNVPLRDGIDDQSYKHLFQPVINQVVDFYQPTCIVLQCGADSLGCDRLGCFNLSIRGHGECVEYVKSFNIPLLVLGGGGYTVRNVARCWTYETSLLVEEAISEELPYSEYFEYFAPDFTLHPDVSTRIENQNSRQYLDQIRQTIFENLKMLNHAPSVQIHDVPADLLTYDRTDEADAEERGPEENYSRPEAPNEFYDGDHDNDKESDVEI
For the next data set, the target named is T1, Histone deacetylase 7 (Homo sapiens, UniProt Q8WUI4).
T1 sequence (Q8WUI4 whole entry): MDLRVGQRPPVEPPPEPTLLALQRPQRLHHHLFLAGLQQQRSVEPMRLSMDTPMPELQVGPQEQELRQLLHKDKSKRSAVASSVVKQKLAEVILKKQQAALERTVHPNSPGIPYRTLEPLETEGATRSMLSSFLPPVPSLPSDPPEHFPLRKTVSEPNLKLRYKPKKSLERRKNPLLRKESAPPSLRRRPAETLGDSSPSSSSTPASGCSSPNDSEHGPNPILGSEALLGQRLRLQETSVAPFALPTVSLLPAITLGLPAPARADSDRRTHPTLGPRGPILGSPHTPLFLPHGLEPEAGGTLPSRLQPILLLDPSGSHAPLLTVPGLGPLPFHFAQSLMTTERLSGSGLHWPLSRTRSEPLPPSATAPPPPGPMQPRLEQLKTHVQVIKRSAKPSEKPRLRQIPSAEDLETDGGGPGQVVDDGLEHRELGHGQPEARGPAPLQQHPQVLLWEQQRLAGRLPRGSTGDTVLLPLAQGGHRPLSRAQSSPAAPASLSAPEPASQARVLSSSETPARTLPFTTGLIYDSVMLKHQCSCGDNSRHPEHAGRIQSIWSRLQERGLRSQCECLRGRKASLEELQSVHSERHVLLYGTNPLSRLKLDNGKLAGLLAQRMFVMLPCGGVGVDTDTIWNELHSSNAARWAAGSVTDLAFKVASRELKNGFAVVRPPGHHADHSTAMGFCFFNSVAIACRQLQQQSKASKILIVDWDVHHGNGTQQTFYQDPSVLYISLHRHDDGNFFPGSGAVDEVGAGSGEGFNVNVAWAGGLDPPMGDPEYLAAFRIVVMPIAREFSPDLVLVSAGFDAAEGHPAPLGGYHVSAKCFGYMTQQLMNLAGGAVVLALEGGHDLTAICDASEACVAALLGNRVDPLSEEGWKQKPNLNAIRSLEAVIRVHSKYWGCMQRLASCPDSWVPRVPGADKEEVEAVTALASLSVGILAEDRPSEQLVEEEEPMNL
Put plainly: Inhibition of HDAC7 derived from human HeLa cell extract using Ac-Leu-Gly-Lys (Ac)-AMC as substrate by fluorescence based assay. The format is cell-free.

The next data set relates to MDA-MB-231. Briefly: cells. The following applies: Homo sapiens, MDA-MB-231, 72 h.
A further data set has as its system A2780. Put plainly: cells. The conditions noted are these: Homo sapiens, A2780, 72 h.
Data set [1] is described as follows: Antiproliferative activity against human HFL1 cells incubated for 72 hrs by MTT assay. The format is toxicity, cell-based.
The test system of another data set is K562. Briefly: Antiproliferative activity against human K562 cells incubated for 72 hrs by MTT assay. The following applies: K562, 72 h. It counts as functional, cell-based.
The target of data set [2] is T2, Protein deacetylase HDAC6 (Homo sapiens, UniProt Q9UBN7).
T2 sequence (Q9UBN7 whole entry): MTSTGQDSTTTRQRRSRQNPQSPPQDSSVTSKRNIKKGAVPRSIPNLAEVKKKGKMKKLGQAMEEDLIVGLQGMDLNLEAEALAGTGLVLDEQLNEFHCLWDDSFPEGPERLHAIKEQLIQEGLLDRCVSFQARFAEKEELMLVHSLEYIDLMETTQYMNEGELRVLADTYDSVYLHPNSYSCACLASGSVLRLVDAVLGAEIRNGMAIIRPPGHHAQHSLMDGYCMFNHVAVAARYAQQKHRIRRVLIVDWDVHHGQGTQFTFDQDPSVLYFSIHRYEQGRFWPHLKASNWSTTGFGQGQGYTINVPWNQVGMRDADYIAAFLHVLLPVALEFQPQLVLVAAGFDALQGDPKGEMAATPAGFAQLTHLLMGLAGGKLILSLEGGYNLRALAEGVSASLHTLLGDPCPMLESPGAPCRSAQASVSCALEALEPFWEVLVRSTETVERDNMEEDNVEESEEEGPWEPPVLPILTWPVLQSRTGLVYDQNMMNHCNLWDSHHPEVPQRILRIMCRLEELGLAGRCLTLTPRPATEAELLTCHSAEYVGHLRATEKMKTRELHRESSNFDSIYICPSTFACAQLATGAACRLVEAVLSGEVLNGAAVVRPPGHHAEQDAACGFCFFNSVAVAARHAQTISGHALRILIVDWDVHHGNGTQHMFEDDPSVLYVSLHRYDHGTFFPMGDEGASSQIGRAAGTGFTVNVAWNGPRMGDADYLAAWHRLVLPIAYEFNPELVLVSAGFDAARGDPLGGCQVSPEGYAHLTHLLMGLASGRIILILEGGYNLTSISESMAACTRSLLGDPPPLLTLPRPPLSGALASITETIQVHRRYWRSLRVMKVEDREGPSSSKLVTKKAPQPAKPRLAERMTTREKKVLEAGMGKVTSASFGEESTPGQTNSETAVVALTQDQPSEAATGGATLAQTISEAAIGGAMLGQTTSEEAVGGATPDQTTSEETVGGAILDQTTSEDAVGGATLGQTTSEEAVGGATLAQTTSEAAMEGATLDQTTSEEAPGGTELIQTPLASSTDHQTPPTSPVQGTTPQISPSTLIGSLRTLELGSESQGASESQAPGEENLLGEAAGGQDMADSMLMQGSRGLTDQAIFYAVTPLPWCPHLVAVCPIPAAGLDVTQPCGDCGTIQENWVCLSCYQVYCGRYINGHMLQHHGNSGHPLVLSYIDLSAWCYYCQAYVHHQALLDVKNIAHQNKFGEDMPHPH
Put plainly: Inhibition of HDAC6 derived from human HeLa cell extract using Ac-Leu-Gly-Lys (Ac)-AMC as substrate by fluorescence based assay. It counts as cell-free.

In another data set the target is Histone deacetylase 1 (Homo sapiens, UniProt Q13547). Briefly: Inhibition of HDAC1 derived from human HeLa cell extract using Ac-Leu-Gly-Lys (Ac)-AMC as substrate by fluorescence based assay. It counts as cell-free.
Chain of Histone deacetylase 1 (Q13547 whole entry): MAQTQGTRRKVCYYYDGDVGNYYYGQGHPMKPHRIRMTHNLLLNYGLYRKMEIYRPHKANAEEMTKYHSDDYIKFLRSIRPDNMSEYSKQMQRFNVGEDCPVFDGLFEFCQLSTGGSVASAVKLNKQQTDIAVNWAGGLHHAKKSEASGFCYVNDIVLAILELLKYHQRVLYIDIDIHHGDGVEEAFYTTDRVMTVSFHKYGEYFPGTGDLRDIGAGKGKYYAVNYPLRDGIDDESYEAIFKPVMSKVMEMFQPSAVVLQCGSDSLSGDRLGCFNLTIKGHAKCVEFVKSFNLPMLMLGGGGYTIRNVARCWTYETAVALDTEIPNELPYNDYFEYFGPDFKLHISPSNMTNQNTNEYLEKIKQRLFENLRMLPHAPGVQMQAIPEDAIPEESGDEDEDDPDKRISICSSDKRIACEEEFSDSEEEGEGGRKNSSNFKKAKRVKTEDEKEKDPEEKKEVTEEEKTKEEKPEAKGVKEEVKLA
Another data set relates to A549. Put plainly: cells. The following applies: Homo sapiens, A549, 72 h.
Another data set deals with Histone deacetylase 2 (Homo sapiens, UniProt Q92769). Put plainly: Inhibition of HDAC2 derived from human HeLa cell extract using Ac-Leu-Gly-Lys (Ac)-AMC as substrate by fluorescence based assay.
Chain of Histone deacetylase 2 (Q92769 whole entry): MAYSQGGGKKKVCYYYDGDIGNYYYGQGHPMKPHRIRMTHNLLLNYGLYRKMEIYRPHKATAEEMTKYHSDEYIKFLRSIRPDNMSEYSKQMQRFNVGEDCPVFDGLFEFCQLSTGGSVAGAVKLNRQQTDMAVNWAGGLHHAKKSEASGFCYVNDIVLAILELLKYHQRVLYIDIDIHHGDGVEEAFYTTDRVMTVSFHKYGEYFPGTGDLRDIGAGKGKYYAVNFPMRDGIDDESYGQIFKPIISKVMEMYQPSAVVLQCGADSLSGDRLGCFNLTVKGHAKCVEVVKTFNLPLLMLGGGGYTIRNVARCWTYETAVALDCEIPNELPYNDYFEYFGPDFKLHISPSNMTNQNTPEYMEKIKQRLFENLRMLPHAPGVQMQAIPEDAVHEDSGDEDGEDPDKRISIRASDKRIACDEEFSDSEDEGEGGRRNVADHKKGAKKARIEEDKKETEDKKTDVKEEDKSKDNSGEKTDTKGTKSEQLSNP
A further data set deals with MCF7. Put plainly: cells. The conditions noted are these: Homo sapiens, MCF7, 72 h.
The subject of a further data set is H22. Briefly: Antitumor activity against mouse H22 cells allografted in ICR mouse assessed as tumor growth inhibition at 20 mg/kg, iv qd for 17 days consecutively relative to control. It counts as functional. The following applies: time 17 day, read-out: TGI.

Description for A2780: Antiproliferative activity against human A2780 cells incubated for 72 hrs by MTT assay
Description for A549: Antiproliferative activity against human A549 cells incubated for 72 hrs by MTT assay
Description for MCF7: Antiproliferative activity against human MCF7 cells incubated for 72 hrs by MTT assay
Description for MDA-MB-231: Antiproliferative activity against human MDA-MB-231 cells incubated for 72 hrs by MTT assay

Broadly, the IC50 is the concentration at which inhibition is half-maximal. High values mean lower potency, low ones higher potency. For `C=C(c1ccc(OC)c(OC(C)C(=O)NO)c1)c1cc(C)nc2ccccc12` (stereo not drawn), the IC50 in the data set with B16-F10 is 30 nM; against Histone deacetylase 3 it was 8910 nM; on Histone deacetylase 7, > 10000 nM; with MDA-MB-231, 28 nM; in the data set on A2780, 14 nM; in the data set with K562, 7 nM. Also, the IC50 in data set [2] came out at 4680 nM; on Histone deacetylase 1 it was 1470 nM; in the data set with A549, 15 nM; at Histone deacetylase 2, 2320 nM; with MCF7 it was 22 nM. For the same compound, in [1], the midpoint of inhibition, the IC50 at 72 h, lay at 95 nM.
Consider `C=C(c1ccc(OC)c(O)c1)c1cc(C)nc2ccccc12`, for which, in the data set with H22, the inhibition in vivo at 20 mg/kg turned out to be 64.1%.

These data come from ChEMBL document CHEMBL5620374, “Synthesis and bioevaluation of novel stilbene-based derivatives as tubulin/HDAC dual-target inhibitors with potent antitumor activities in vitro and in vivo” (Eur J Med Chem, 2023).
